Laboratory results taken from patent US12503448B2, “Antibacterial and antiparasitic quinoxaline-2,3-diamine derivatives” (University College Cardiff Consultants Limited, priority 2019, dated 2025).
≈ marks a conversion by molar mass, not a printed value. Where two headings read alike, the source gives them in different places.

How the values were obtained:
[1] = Metabolic stability in mouse liver microsomes; conditions: liver microsomes
[2] = tested on: H3K4 methylation; test: Histone extraction and detection of global H3K4 methylation in treated adult worms; assay type: cell-based, Schistosoma mansoni; conditions: sub-lethal concentration 0.0024 μM, male and female adult worms
[3] = Semi thermodynamic solubility; conditions: thermodynamic from solid
[4] = tested on: S. mansoni schistosomula; test: 72 hours schistosomula drug screen; assay type: cell-based, Schistosoma mansoni; conditions: for Selectivity Index Schistosomula: HepG2 CC50 over schistosomula EC50; for EC50: Schistosoma mansoni
Procedure, shortened: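 Newly transformed S. mansoni schistosomula were screened for 72 h in 384-well format. Phenotype and motility were scored, and a schistosomula average was derived.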

[5] = tested on: S. mansoni adult worms; test: Adult worm drug screen (WHO scoring, WormassayGP2); assay type: cell-based, Schistosoma mansoni
Procedure, shortened: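 Adult worms perfused from MF-1 mice 7 weeks after infection with 180 cercariae. Motility after drug exposure scored on the WHO-TDR 0–4 microscopic scale (0 = no movement, 4 = normal), checked by image-based motion analysis. Deposited eggs counted.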

[6] = Mouse pharmacokinetics, oral cassette dosing; conditions: for AUC(0-t) / Cmax / MRT last / Tmax: male, C57/BL6, mouse, plasma, po, 2.5 mg/kg; for Tlast: oral, nominal dose 2.5 mg/kg, cassette
Description: Non-compartmental mouse pharmacokinetics (Male C57/BL6 Mouse, Fasted; 3 mice per group) were determined after oral administration of a nominal dose of 2.5 mg/kg of these formulations in cassettes (5 compounds/group) according to the protocols employed by WuXi (https://www.wuxiapptec.com; the CRO that conducted these studies).

[7] = tested on: F. hepatica newly excysted juveniles (NEJs); test: Newly excysted juveniles (NEJs) drug screen; assay type: cell-based, Fasciola hepatica; parameters: scale not given here; conditions: 10 μM, 72 h; higher score indicates lower worm activity
Description: Newly Excysted Juveniles (NEJs) Drug Screen
F. hepatica (Italian strain) metacercariae were obtained from Ridgeway Research, Gloucestershire, UK and stored at 4° C. Newly excysted juveniles (NEJs) from metacercariae were produced based on an optimisation introduced to the excystment method published by Dixon et al. and Wilson et al (Dixon, K. E., The physiology of excystment of the metacercaria of Fasciola hepática L. Parasitology, 1966, 56, 431-456.; Wilson, L. R., Good, R. T., Panaccio, M., Wijffels, G. L., Sandeman, R. M., Spithill, T. W, Fasciola hepatica: Characterization and Cloning of the Major Cathepsin B Protease Secreted by Newly Excysted Juvenile Liver Fluke. Experimental Parasitology 1998, 88, 85-94).
After excystment, NEJs were distributed into a 24 well tissue culture plate at a density of 25 parasites per well containing 1 mL of pre-warmed NEJs culture media. Compounds were added to respective wells and NEJ/compound co-cultures were incubated at 37° C. in an atmosphere containing 5% CO2 for 72 hours at a final concentration of 10 μM.
F. hepatica NEJs (25 per well) were incubated with the three compounds at a concentration of 10 μM (in 0.1% DMSO) and cultured for 72 hrs at 37° C. in an atmosphere containing 5% CO2. Control wells (25 NEJs per well) included those containing 0.1% DMSO (solvent) and RMPI (media) as negative controls or 10 μM Triclabendazole (0.1% DMSO, as positive control, labelled “Tbz” (Comp. 3). After 72 hrs, all NEJs were scored for phenotype and motility metrics. For each treatment, an average of both phenotype and motility score was calculated based on the individual parasite scores (across two independent replicates), wherein a higher score indicates lower worm activity. SD is reported on the bar chart.

[8] = MTT assay on HepG2 cells; assay type: cell-based; conditions: human
Description: MTT Assay on HepG2 Cells Human Hepatocyte Carcinoma (HepG2) cells (85011430, Sigma Aldrich) were used to assess the overt toxicity of these anti-infective compounds. […] A negative control (1% v/v Triton X-100; X100, Sigma-Aldrich) was also included in each screen. After addition of compounds, each plate was then incubated for a further 20 hrs before application of MTT reagent (prepared as described in Nur-[…], Bari A, Ghabbour […], Hoffmann […] Nat Prod. 2017 Jun. 23; 80(6):1900-1908 for the assessment of compound cytotoxicity using the MTT assay. […] The plate was then further incubated for 4 hrs. After incubation, each plate was blotted dry under the laminar flow to remove the MTT treated culture media. A 100 μl DMSO: isopropanol (1:1) solution was then added to each well and the plate was then subsequently incubated for 10 minutes at 37° C. Following incubation, each plate was shaken again and then absorbance measured at 570 nm. The absorbance reading was corrected based on the average value of the wells used as blank (no cells). […] The data obtained in this manner is shown in Table 1 in the columns labelled “HepG2”. […] The selectivity indexes for schistosomula and adult worms are shown in the final two columns in Table 1.

[9] = tested on: Schistosoma mansoni; test: Anti-schistosomal in vivo efficacy screen (murine model of schistosomiasis); conditions: 100 mg/kg oral, two doses (day 1 and day 3), mice
Description: Anti-Schistosomal in vivo Efficacy Screen
An anti-schistosomal efficacy trial of the compounds described herein was conducted on a murine model of Schistosomiasis using the following procedure. Schistosoma mansoni cercaria were prepared from infected Biomphalaria glabrata snails by inducing synchronous shedding upon exposure to light for 40 minutes (in artificial pond water). […] A maximum of 6 mice were housed in a cage for the duration of the 7-week infection.
At 6 wks post infection (Day 42 post infection), mice were dosed with anthelmintic chemicals using autoclaved gavage needles for oral delivery. The gavage needle was dipped into a concentrated solution of sucrose (approx. 1 g/ml) before dosing as a refinement measure to reduce stress-related reactions.
For oral dosing, the compounds (dry powder) were weighed and prepared in an appropriate excipient (e.g. 10% DMSO, 20% Kolliphor EL and 70% sterile water). […]
At the end of the treatment (on day 48 post-infection), mice were perfused after receiving an intra-peritoneal administration of non-recoverable dose of sodium pentobarbital (100 μl/10 g body weight) containing 100 U/ml heparin solution (in 1×PBS). […] After incubation in a humidified environment containing 5% CO2 at 37° C. for at least 1 h, the quantification of worm burden per each mouse of each treatment was performed. […]

[10] = in vitro; conditions: plasma
[11] = average of phenotype and motility, read-out: EC50 Schistosomula average
[12] = schistosomula, 72 hour culture, read-out: EC50 Motility
[13] = schistosomula, 72 hour culture, read-out: EC50 Phenotype

| half-life at 1 μM [1] | microsomal CLint at 1 μM [1] | solubility thermodynamic [3] | EC50 [4, 11] | EC50 [4, 12] | EC50 [4, 13] | AUC(0-t) [6] | Cmax [6] | MRT last [6] | Tmax [6] | Tlast [6] | Compound | Selectivity Index Schistosomula [4] | Motility (M) Mean score [7] | Phenotype (P) Mean score [7] | also measured |
| --- | --- | --- | --- | --- | --- | --- | --- | --- | --- | --- | --- | --- | --- | --- | --- |
| 1.45 h | 16 µL/min/mg | 6.95 µM (≈ 3.68 µg/mL) | 480 nM | 470 nM | 480 nM | 337 ng·h/mL | 79.3 ng/mL | 4.22 h | 4 h | 8.00 h | O=[N+]([O-])c1ccc2nc(Nc3cc(C(F)(F)F)ccc3F)c(Nc3cc(C(F)(F)F)ccc3F)nc2c1 [Compound 9, N^2, N^3-bis(2-fluoro-5-(trifluoromethyl)phenyl)-6-nitroquinoxaline-2,3-diamine] | 223 | 3.68 | 4.63 | global H3K4 methylation compared to the negative control (DMSO) [2]: significant % decrease; Selectivity Index Adult ([5]; HepG2 CC50 over adult worm EC50): 29464; EC50 ([5]; Schistosoma mansoni, adult worms): 3.6 nM; CC50 at 24 h [8]: 106000 nM |
| 2.52 h | 9.18 µL/min/mg | 12.7 µM (≈ 5.41 µg/mL) | 470 nM | 530 nM | 400 nM | 436 ng·h/mL | 90.4 ng/mL | 4.25 h | 3.33 h | 8.00 h | O=[N+]([O-])c1ccc2nc(Nc3ccc(Cl)cc3)c(Nc3ccc(Cl)cc3)nc2c1 [Compound 4, N^2, N^3-bis(4-chlorophenyl)-6-nitroquinoxaline-2,3-diamine] | 28 | 4.71 | 5.13 | reduction in worm burden in vivo compared to the vehicle [9]: 35.5%; reduction in egg count in vivo compared to the vehicle ([9]; liver eggs): 39.9% |
|  |  | > 100 µM |  |  |  |  |  |  |  |  | CC(=O)CC(c1ccccc1)c1c(O)c2ccccc2oc1=O (stereo not drawn) [Warfarin, reference compound] |  |  |  | fraction unbound [10]: 0.0727 |
